Counter-ions that a name gives are not always drawn. Calls of active or inactive are those of the source. The calls are words filed in the database; no cut-off is given here.
How the values were obtained:
Assay type in all cases: functional, cell-based
[1] = target: T1, TyR1 (Chilo suppressalis) (UniProt H9TVJ1); experiment: Agonist activity at Chilo suppressalis (rice stem borer) tyramine receptor TyR1 expressed in HEK293 cells assessed as reduction in forskolin-induced cAMP accumulation at 10 uM incubated for 20 min; parameters: scale not given: the % may be the effect or the level left
T1 sequence (whole entry): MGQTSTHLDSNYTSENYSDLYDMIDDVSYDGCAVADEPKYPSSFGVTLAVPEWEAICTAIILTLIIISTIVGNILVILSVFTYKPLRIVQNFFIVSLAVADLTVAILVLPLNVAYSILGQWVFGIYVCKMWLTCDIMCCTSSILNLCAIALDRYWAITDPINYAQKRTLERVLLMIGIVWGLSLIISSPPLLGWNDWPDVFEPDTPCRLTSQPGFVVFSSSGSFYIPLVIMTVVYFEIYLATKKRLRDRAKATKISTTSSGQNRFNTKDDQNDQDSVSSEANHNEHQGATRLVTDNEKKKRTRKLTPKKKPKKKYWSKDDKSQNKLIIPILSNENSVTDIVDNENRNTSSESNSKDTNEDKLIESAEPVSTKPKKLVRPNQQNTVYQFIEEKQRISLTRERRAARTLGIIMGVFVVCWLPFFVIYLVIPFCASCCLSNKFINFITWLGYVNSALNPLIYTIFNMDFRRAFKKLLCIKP

[2] = target: T1, TyR1 (Chilo suppressalis); experiment: Agonist activity at Chilo suppressalis (rice stem borer) tyramine receptor TyR1 expressed in HEK293 cells assessed as increase in forskolin-induced cAMP accumulation at 10 uM incubated for 20 min relative to untreated control
[3] = target: T1, TyR1 (Chilo suppressalis); experiment: (§1) Agonist activity at Chilo suppressalis (rice stem borer) tyramine receptor TyR1 expressed in HEK293 cells assessed as reduction in forskolin-induced cAMP accumulation incubated for 20 min
TyR1 = target: T2, TyR1 (Chilo suppressalis, UniProt H9TVJ1); experiment: as §1
T2 sequence (H9TVJ1 whole entry): T1 sequence (whole entry)

[4] = target: T1, TyR1 (Chilo suppressalis); experiment: Agonist activity at Chilo suppressalis (rice stem borer) tyramine receptor TyR1 expressed in HEK293 cells assessed as reduction in forskolin-induced cAMP accumulation at < 1 umol incubated for 20 min

Compound | Activity [1] | further results
Clc1cccc(Cl)c1NC1=NCCN1 | Active | –
NCCc1c[nH]c2ccc(O)cc12 | inactive | Activity [2]: inactive
c1ccc2c(CC3=NCCN3)cccc2c1 | inactive | –
Cc1cc(Cl)ccc1/N=C/N(C)C | inactive | –
NCCc1ccc(O)cc1 [TYRAMINE HYDROCHLORIDE] | 75% | Activity [3]: Dose-dependent effect; EC50 (TyR1): 369 nM
Cc1ccc(/N=C/N(C)/C=N/c2ccc(C)cc2C)c(C)c1 | Active | Activity [4]: inactive
NCCc1ccc(O)c(O)c1 | – | fold change (FC) [2]: 2
NCC(O)c1ccc(O)cc1 (racemic) [OCTOPAMINE HYDROCHLORIDE] | 56% | Activity [3]: Dose-dependent effect; EC50 (TyR1): 978 nM
